# Assay results as given in patent publication US20160257997A1, “METHODS FOR WHOLE-CELL ANALYSIS OF GRAM-POSITIVE BACTERIA” (AdvanDx, Inc., priority 2009, published 2016).
# {Biotin} = biotin label at the PNA N-terminus, attached through the O linker (8-amino-3,6-dioxaoctanoic acid); {PacBlue} = Pacific Blue dye label at the PNA N-terminus, attached through the O linker; {TAMRA} = TAMRA (TAM) fluorescent label at the PNA N-terminus
# Experiments:
# MecA = experiment: PNA FISH with tyramide signal amplification (Example 4); type: cell-based, S. aureus; settings: MRSA 33591, oxacillin-induced; 500 nM total; streptavidin-HRP, AlexaFluor 594-labeled tyramide; FIG. 4
# Experimental: Cell fixation and permeabilization was also performed as described in Example 1 except that prior to hybridization the slides were treated at 80° C. for 5 minutes with 75 μL of TE buffer (Tris-HCl 100 mM, EDTA, 10 mM, pH 8.0). For hybridization, 25 μL of HB** containing five biotin-labeled PNA probes (Probes 11, 12, 13, 14 and 15 (concentration of each probe was 100 nM for a total concentration of 500 nM) was applied on one slide. Another slide was probed with one biotin-labeled, C. albicans—specific rRNA-directed probe (probe 10, concentration 500 nM) in control experiment. Hybridization and washing were performed as described in Example 1. Slides were then processed with reagents commercially available from Molecular Probes (TSA Kit #25, Eugene, Oreg.) according to manufacturer's protocol. Specifically, slide-deposited cells were first incubated 30 min with 0.075 mL of Blocking Buffer (BB) then 30 min with 0.1 mL of streptavidin-HRP diluted in BB. After washing (3×5 min wash) with PBS-Tween, the cells were incubated 10 min with 0.075 mL of AlexaFluor 594-labeled tyramide solution and washed (3×5 min wash) again. A drop of MM and cover slip was then applied on air dried slides and the cells were examined by FM. […]
# rRNA [1] = experiment: PNA FISH with rRNA-directed probes on S. epidermidis cells (Example 3); settings: MRSE 51625 in mixture with MRSA 43300
# Experimental: In this example a mixture of MRSA 43300 and MRSE 51625 was prepared and examined using three fluorescent filters as described below. The growth and oxacillin induction of S. aureus cells was performed as described in Example 1. […] S. epidermidis was grown essentially as described for S. aureus in Example 1. Cell fixation and permeabilization of both MRSA 43300 and MRSE 51625 was performed as described in Example 1.
# The remainder of the procedure was performed as described in Example 1. These images are of the same section of the slide. In each case, only the fluorescence filter was changed.
# rRNA [2] = experiment: PNA FISH with rRNA-directed probes on S. aureus cells (Examples 2-3); type: cell-based
# Text: Some (but not all) of the visible colonies in the slides are surrounded by a circle (slide A) or a square (Slide B). This should assist in analysis of the slides where black and white copies of the Figures are provided in lieu of color copies. In Image A-1 and A-2, the same colonies are encircled to simplify the comparison. The conditions for each of the slides examined in FIG. 2, are as follows: • A-1) MRSA 43300, Dual band filter • B-1) MSSA 29213, Dual band filter • A-2) MRSA 43300, FITC filter • B-2) MSSA 29213, FITC filter
# MecA mRNA = experiment: PNA FISH of MecA mRNA in permeabilized S. aureus (Examples 1-3); type: cell-based; settings: MRSA 43300, oxacillin-induced; FIG. 1 Slides B-D; Probes 1-5 794 nM combined, Probe 2 750 nM, Probe 6 750 nM
substance,measurement,setting,value
"AGAGAGCAGCATCCA (all peptide nucleic acid (PNA), 5' {Biotin}; peptide nucleic acid FISH probe, chemically synthesized) [Probe 10, Biotin-labeled C. albicans-specific rRNA-directed PNA probe, control]",fluorescent staining of bacteria after tyramide signal amplification,MecA,absence of visible bacteria
"TAM-GCTTCTCGTCCGTTC (all peptide nucleic acid (PNA), 5' {TAMRA}; peptide nucleic acid FISH probe; listed as Staphylococcus aureus) [Probe 8, TAMRA-labeled S. aureus-specific rRNA-directed PNA probe]",fluorescent staining of bacteria (dual band filter),rRNA [1]; FIG. 3 Image A,no TAMRA signal
same,fluorescent staining of bacteria (dual band filter),"rRNA [2]; MRSA 43300 and MSSA 29213, 500 nM, FIG. 2 Slides A-1 and B-1",Red fluorescent stained bacteria
same,fluorescent staining of bacteria (dual band filter),"rRNA [2]; MRSA 43300 in mixture with MRSE 51625, FIG. 3 Image A",red fluorescence
"TCAATGAGCAAAGGT (all peptide nucleic acid (PNA); fluorescein label, position not given here; listed as Escherichia coli) [Probe 6, Flu-labeled E. coli specific rRNA-directed PNA probe, control]",fluorescent staining of bacteria (FITC filter),MecA mRNA,No signal was observed
"TCCTCGTCTGTTCGC (all peptide nucleic acid (PNA), 5' {PacBlue}; peptide nucleic acid FISH probe, chemically synthesized; listed as Staphylococcus epidermidis) [Probe 9]",fluorescent staining of bacteria (DAPI filter),"rRNA [1]; 500 nM, FIG. 3 Image B",Blue stained MRSE bacteria are visible
